Measurements as given in BindingDB's records for doi:10.1021/jm950759z (Cooperation Pharmaceutique Fran?aise, 1997).

Experiment: Inhibition of [3H]spiperone binding to Dopamine receptor D3 in bovine cortex

SMILES: O=C1CC2(CCCC2)CC(=O)N1CCCCN1CCN(c2ncccn2)CC1 [BUSPAR]
- Ki: 660 nM
